In PMC10562414, “GLP-1R signaling neighborhoods associate with the susceptibility to adverse drug reactions of incretin mimetics” (Nature Communications, 2023):

Target: GLP-1R (Homo sapiens, UniProt P43220)
Experiment: ebBRET pathway activation (15 pathways) at the endoplasmic reticulum (tdrGFP-PTP1B)
Assay type: cell-based
Conditions: for Emax: Endoplasmic reticulum; for Efficacy (normalized) / Potency (logEC50): endoplasmic reticulum
Method: Subcellular resolution was achieved by using organelle-specific energy acceptors for early endosomes, the Golgi apparatus and the endoplasmic reticulum.
Data are represented as the mean ± SEM (n = 3 biologically independent experiments). EE early endosomes, GA Golgi apparatus, ER endoplasmic reticulum.
HEK293 cells were cultured in DMEM supplemented with 10% FBS, 1% penicillin/streptomycin, propagated in plastic flasks and grown at 37 °C in 5% CO2 and 90% humidity. […] After a 48-hour incubation, cells were washed once with HBSS and maintained in the same buffer.
Best fit values were excluded if EC50 was outside of the concentration range tested or if the span was negative. […] All further data processing was performed in R (version 4.2.1).
Pharmacological characterization of GLP-1R agonist signaling
profiles at the endoplasmic reticulum. a, Illustration depicting the ebBRET approach to
monitoring signaling at the endoplasmic reticulum. b, Concentration-response curves of GLP-1R
agonists across 15 pathways at the endoplasmic reticulum using tdrGFP-P TP1B. Data are
represented by the non-linear fit and sc aled according to the highest responding drug (n=3
biologically independent samples). Drug-s pecific polar area diagrams for efficacy (normalized
endoplasmic reticulum. Drugs were deemed to activate a given pathway after comparing
the top and bottom parameters from non-linear regression by one-sided extra sum-o f-
similarity index for efficacy (e) and potency (f) quantifies similarities and differences across drug
Drug- induced transducer engagement by GLP-1R at the
endoplasmic reticulum. Agonist concentration response curves for 15 transducers at the
endoplasmic reticulum. Drugs were deemed to activate a given pathway after comparing the top
and bottom parameters from non-linear regres sion by one-sided extra s um-o f-s quares F-t est
Data are represented as the
mean ± SEM (n=3 biologically independent samples). Sigmoidal dose-r esponse curves are
Polar area diagrams depict pathway activation at the endoplasmic
reticulum. Pathway-specific polar area diagrams for efficacy (normalized to the highest
were deemed to activate a given pathway after comparing the top and bottom parameters from
non-linear regression by one-sided extra sum-o f-s quares F-t est followed by Bonferroni

Sequence of GLP-1R (P43220 24-463): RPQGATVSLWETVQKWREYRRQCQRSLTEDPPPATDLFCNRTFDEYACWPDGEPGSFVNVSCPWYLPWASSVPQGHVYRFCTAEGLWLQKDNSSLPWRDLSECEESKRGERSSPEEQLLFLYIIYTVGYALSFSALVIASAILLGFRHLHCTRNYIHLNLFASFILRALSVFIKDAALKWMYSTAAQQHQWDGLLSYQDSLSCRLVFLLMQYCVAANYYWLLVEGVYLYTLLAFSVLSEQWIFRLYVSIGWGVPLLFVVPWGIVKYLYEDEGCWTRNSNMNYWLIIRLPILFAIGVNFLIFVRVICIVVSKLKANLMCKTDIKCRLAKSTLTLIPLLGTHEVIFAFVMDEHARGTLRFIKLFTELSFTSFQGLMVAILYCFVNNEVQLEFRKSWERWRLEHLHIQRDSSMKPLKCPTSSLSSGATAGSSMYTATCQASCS

N#Cc1ccc(COc2cccc(C3CCN(Cc4nc5ccc(C(=O)O)cc5n4C[C@@H]4CCO4)CC3)n2)c(F)c1 [Danuglipron] was tested, and the Emax (GRK/Gβγ) was 0.1421, the Emax (Gα11) was 0 and the Emax (Gα12) was 0. The Emax (Gα13) was 0, the Emax (Gα14) was 0 and the Emax (Gα15) was 0. The Emax (Gαi1) was 0, the Emax (Gαi2) was 0 and the Emax (Gαi3) was 0. It also gave an Emax (GαoA) of 0, an Emax (GαoB) of 0 and an Emax (Gαq) of 0. The Emax (Gαs) was 0.2391, the Emax (Gαz) was 0 and the Emax (βARR) was 0.08276. For the same molecule, the “mGs recruitment at the endoplasmic reticulum, in words” value (Rluc8-mGs, tdrGFP-PTP1B, 60 min, n = 3) was “the only drug capable of recruiting mGs to the endoplasmic reticulum”, the “Efficacy (normalized)” value (GRK2/Gβγ, Supplementary Fig. 15c) was 0.6257 and the “Efficacy (normalized)” value (Gα11, Supplementary Fig. 15c) was 0. The “Potency (logEC50)” value (Gα11, Supplementary Fig. 15d) was 0, the “Efficacy (normalized)” value (Gα12, Supplementary Fig. 15c) was 0 and the “Potency (logEC50)” value (Gα12, Supplementary Fig. 15d) was 0. The “Efficacy (normalized)” value (Gα13, Supplementary Fig. 15c) was 0, the “Potency (logEC50)” value (Gα13, Supplementary Fig. 15d) was 0 and the “Efficacy (normalized)” value (Gα14, Supplementary Fig. 15c) was 0. The “Potency (logEC50)” value (Gα14, Supplementary Fig. 15d) was 0, the “Efficacy (normalized)” value (Gα15, Supplementary Fig. 15c) was 0 and the “Potency (logEC50)” value (Gα15, Supplementary Fig. 15d) was 0. For the same molecule, the “Efficacy (normalized)” value (Gαi1, Supplementary Fig. 15c) was 0, the “Potency (logEC50)” value (Gαi1, Supplementary Fig. 15d) was 0 and the “Efficacy (normalized)” value (Gαi2, Supplementary Fig. 15c) was 0. The “Potency (logEC50)” value (Gαi2, Supplementary Fig. 15d) was 0, the “Efficacy (normalized)” value (Gαi3, Supplementary Fig. 15c) was 0 and the “Potency (logEC50)” value (Gαi3, Supplementary Fig. 15d) was 0. For the same molecule, the “Efficacy (normalized)” value (GαoA, Supplementary Fig. 15c) was 0, the “Potency (logEC50)” value (GαoA, Supplementary Fig. 15d) was 0 and the “Efficacy (normalized)” value (GαoB, Supplementary Fig. 15c) was 0. For the same molecule, the “Potency (logEC50)” value (GαoB, Supplementary Fig. 15d) was 0, the “Efficacy (normalized)” value (Gαq, Supplementary Fig. 15c) was 0 and the “Potency (logEC50)” value (Gαq, Supplementary Fig. 15d) was 0. The “Efficacy (normalized)” value (Gαs, Supplementary Fig. 15c) was 1, the “Potency (logEC50)” value (Gαs, Supplementary Fig. 15d) was 0.2956 and the “Efficacy (normalized)” value (Gαz, Supplementary Fig. 15c) was 0. For the same molecule, the “Potency (logEC50)” value (Gαz, Supplementary Fig. 15d) was 0, the “Efficacy (normalized)” value (βARR2, Supplementary Fig. 15c) was 0.2909 and the “Potency (logEC50)” value (βARR2, Supplementary Fig. 15d) was 0.3992.
